Columns and labels:
[1] = tested on: FOXP3, Il17, Il17f, and Rorc mRNA in TH17 cells; experiment: mRNA expression analysis by qRT-PCR in TH17 cells; type: cell-based, mouse; settings: normalized to β-actin
Description: (§1) At the end of differentiation (day 6), T cells were re-stimulated with plate-coated anti-CD3 and anti-CD28 for 5 hours in the absence of any small-molecule compounds or metabolites. Quantitative reverse transcriptase polymerase chain reaction (qRT-PCR) was performed to evaluate mRNA expression of FOXP3, Il17, Il17f, and Rorc. For differentiating TH17 or iTreg cells, cells were collected on day 2.5 or at the indicated time for mRNA expression analysis. The expression was normalized to β-actin.

[2] = tested on: FOXP3 promoter and its intronic CpG island; experiment: Methylation analysis by bisulfite sequencing, T cells under iTreg condition; type: cell-based, mouse; settings: iTreg condition (day 5); 0.5 mM dimethyl R-2-HG or AOA; male mice
Description: (§2) The method is essentially the same as described previously (Kim, et al. J Exp Med 204 (7), 1543-1551 (2007)). Briefly, genomic DNA was purified with Blood & Cell Culture DNA Midi Kit (Qiagen). Bisufite conversion of genomic DNA was performed using Epitect® bisulfite kit (Qiagen), according to the manufacture's instruction. The PCR product was run on 2% agarose, purified and cloned using TOPO® TA Cloning® Kit with PCR®4. Clones are picked for Sanger sequencing.

[3] = tested on: FOXP3 mRNA in iTreg cells; experiment: mRNA expression analysis by qRT-PCR in iTreg cells; type: cell-based, mouse; settings: normalized to β-actin
Description: as §1

[4] = tested on: differentiating iTreg cells; experiment: iTreg differentiation of CD4 naïve T cells (FOXP3-GFP reporter or intracellular staining of FOXP3); type: cell-based, mouse; settings: for reversal of the enhancing effect of AOA on iTreg cell differentiation: in the presence of AOA, day 5, 0.5 mM α-KG, 0.125 mM 2-HG (0.25 mM in FIG. 2g), 0.5 mM succinate, 50 μM fumarate, 0.5 mM malate, 0.5 mM citrate
Description: CD4 naïve T cells (CD4+CD25-CD62^highCD44^low) were obtained from interleukin (IL)-17F-red fluorescent protein (RFP)/FOXP3-green fluorescent protein (GFP) mice, which were characterized previously, or wild-type C57/BL6 mice, by cell sorting. 0.4 million cells were plated into 48 wells coated with anti-mouse CD3 (clone 145-2C11, eBioscience) […] and anti-mouse CD28 (clone 37.51, eBioscience) (1 μg/ml). The differentiation media for these naïve T cells was as follows: 0.5 ng/ml (or indicated) transforming growth factor (TGF) β, 200 U/ml mouse IL-2, 2 μg/ml anti-interferon (IFN) γ and 2 μg/ml anti-mouse IL4 for differentiation into iTreg cells; and 2.5 ng/ml TGFβ, 10 ng/ml mouse IL-1β, 10 ng/ml mouse IL-6, 10 ng/ml mouse IL-23, 2 μg/ml anti-mouse IFNγ, and anti-mouse IL-4 for differentiating into TH17 cells. The cells were supplemented with new medium at day 4. In cases in which small-molecule compounds were present, the fresh medium containing the same concentration of compounds was used. When necessary, the individual metabolite was added into the T-cell culture 6 hours later after initial cell plating. […]

[5] = tested on: differentiating TH17 cells; experiment: TH17 differentiation of CD4 naïve T cells (IL17F-RFP/FOXP3-GFP reporter or intracellular staining of IL-17 and FOXP3); type: cell-based, mouse; settings: for rescue of the inhibitory effect of AOA on TH17 cell differentiation: in the presence of AOA, day 6, 0.75 mM α-KG, 0.5 mM 2-HG, 0.5 mM succinate, 50 μM fumarate, 0.5 mM malate, 0.5 mM citrate, 1 mM NAC, 1 mM GSH
Description: CD4 naïve T cells (CD4+CD25-CD62^highCD44^low) were obtained from interleukin (IL)-17F-red fluorescent protein (RFP)/FOXP3-green fluorescent protein (GFP) mice, which were characterized previously, or wild-type C57/BL6 mice, by cell sorting. 0.4 million cells were plated into 48 wells coated with anti-mouse CD3 (clone 145-2C11, eBioscience) […] and anti-mouse CD28 (clone 37.51, eBioscience) (1 μg/ml). The differentiation media for these naïve T cells was as follows: 0.5 ng/ml (or indicated) transforming growth factor (TGF) β, 200 U/ml mouse IL-2, 2 μg/ml anti-interferon (IFN) γ and 2 μg/ml anti-mouse IL4 for differentiation into iTreg cells; and 2.5 ng/ml TGFβ, 10 ng/ml mouse IL-1β, 10 ng/ml mouse IL-6, 10 ng/ml mouse IL-23, 2 μg/ml anti-mouse IFNγ, and anti-mouse IL-4 for differentiating into TH17 cells. The cells were supplemented with new medium at day 4. In cases in which small-molecule compounds were present, the fresh medium containing the same concentration of compounds was used. When necessary, the individual metabolite was added into the T-cell culture 6 hours later after initial cell plating. On day 6, the cells were analyzed for IL17F-RFP and FOXP3-GFP or the cells were collected and restimulated for 4-6 hours with PMA, inomycin, and Golgi-stop for intracellular staining in absence of indicated compounds.
To identify small molecules that regulate cell-fate switching of TH17/iTreg cells and to further understand the regulation of the TH17/iTreg balance, 10,000 individual small molecules were phenotypically screened using CD4 naïve T cells from IL-17F-RFP/FOXP3-GFP mice. The naïve T cells were cultured under optimal TH17 differentiation conditions and compounds that could reprogram TH17 differentiation toward iTreg cell fate were identified using the reporter readout. Briefly, after TH17 differentiation for 24 hours, compounds were added to TH17 culture, and the treatment was continued for an additional 5 days before the cells were analyzed for IL17F-RFP and FOXP3-GFP expression by high-throughput fluorescence-activated cell sorting (FACS) (FIG. 5a). […] This effect of reprogrammed differentiation was further confirmed by intracellular immunostaining of IL-17 and FOXP3 (FIG. 1a).

[6] = tested on: FOXP3 promoter and its intronic CpG island; experiment: Methylation analysis by bisulfite sequencing, T cells under TH17 condition; type: cell-based, mouse; settings: 0.5 mM dimethyl R-2-HG (day 4) or AOA (day 6), male mice
Description: as §2

Got1 = target: T1, Got1 (Mus musculus, UniProt P05201); experiment: Retroviral shRNA knockdown of Got1 in differentiating TH17 cells, intracellular staining of FOXP3 and IL-17; type: cell-based; settings: sorted GFP+ cells, TH17 condition, day 6; versus empty vector or GFP− cells
T1 construct: Got1 was knocked down in differentiating TH17 cells with retrovirus containing GFP and shRNA against Got1; endogenous in cells; host or cells: primary mouse CD4 naive T cells differentiated under TH17 conditions
Description: (§3) Short hairpin RNAs (ShRNAs) (synthesized DNA oligos), after annealing, were cloned into PMKO.1-GFP retrovirus vector. The plasmids and pCL-ECO (1:1) were transfected into 293T cells with Fugene® HD4 (Promega). The medium was changed 6 hours after transfection, and the cells were further cultured for 48-72 hours. The supernatant was then collected and filtered using […]. The supernatant containing the viruses was added into pre-activated CD4+ T cells (20 hours after initial plating). The cells were spin-infected at 1000 g for 2 hours and cultured in incubator for another 2 hours. The cells were washed and cultured under TH17 conditions for an additional 4 days. New medium was added if necessary. At day 5, the cells were collected for sorting GFP+ cells and GFP− cells. Sorted cells were further cultured until day 6, and re-stimulated for intracellular staining or mRNA analysis, as described above.

IDH1 and IDH2 = experiment: Retroviral shRNA knockdown of IDH1 and/or IDH2 in T cells under TH17 condition, intracellular staining of IL-17 and FOXP3; type: cell-based, mouse; settings: sorted GFP+ cells cultured under TH17 condition
Description: as §3
2-HG, which was originally identified in cancer cells harboring isocitrate dehydrogenase (IDH) 1/2 mutation, is also known to be produced via wild-type IDH1 and IDH2 reactions as well. Among all the dehydrogenases examined in this study, only IDH1 and 2 are highly expressed in differentiating TH17 cells (FIGS. 10a, 10d). […] GFP+ cells and GFP− cells were sorted and analyzed by intracellular staining of IL-17 and FOXP3.

IDH1 and/or IDH2 mRNA = experiment: mRNA expression of IDH1 and IDH2 in shRNA-infected GFP+ cells; type: cell-based, mouse; settings: GFP+ cells re-stimulated with anti-CD3 and anti-CD28; normalized to β-actin
Description: as §1
as §3, with “Sorted cells were further cultured until day 6, and re-stimulated for intracellular staining or mRNA analysis, as described above.” left out

[7] = re-stimulated with anti-CD3 and anti-CD28 for 5 hours

T1 sequence (P05201 whole entry): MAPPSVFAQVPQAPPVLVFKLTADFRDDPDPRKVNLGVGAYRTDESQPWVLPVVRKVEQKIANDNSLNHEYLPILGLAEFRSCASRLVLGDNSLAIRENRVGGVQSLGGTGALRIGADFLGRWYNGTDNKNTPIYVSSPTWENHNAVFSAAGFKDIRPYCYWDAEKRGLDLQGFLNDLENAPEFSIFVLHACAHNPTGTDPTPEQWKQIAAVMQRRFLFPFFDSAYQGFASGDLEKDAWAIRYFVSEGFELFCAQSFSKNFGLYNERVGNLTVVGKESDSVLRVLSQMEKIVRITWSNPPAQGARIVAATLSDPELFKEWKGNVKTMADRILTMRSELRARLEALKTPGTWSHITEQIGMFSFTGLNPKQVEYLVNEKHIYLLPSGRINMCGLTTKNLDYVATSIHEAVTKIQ

Molecule	reversal of the enhancing effect of AOA on iTreg cell differentiation [4]	rescue of the inhibitory effect of AOA on TH17 cell differentiation [5]	percentage of IL17+ cells (Got1)	proportion of FOXP3+ cells (Got1)	reduction of the percentage of IL-17 producing cells (IDH1 and IDH2)	mRNA expression of IDH1 and/or IDH2 (IDH1 and/or IDH2 mRNA)	also measured
COC(=O)CC[C@@H](O)C(=O)OC [Dimethyl R-2-HG, (R)-dimethyl 2-hydroxyglutarate]	reversed its enhancing effect on iTreg differentiation	rescued the inhibitory effect of AOA on TH17 differentiation	–	–	–	–	FOXP3 mRNA expression [1]: suppressed FOXP3 mRNA expression; Il17/Il17f mRNA level [1, 7]: increased Il17/Il17f mRNA; Rorc mRNA level [1, 7]: did not affect Rorc mRNA; methylation level of FOXP3 promoter and its intronic CpG island [2]: dramatically increase methylation level; FOXP3 mRNA expression [3]: suppressed FOXP3 mRNA expression; FOXP3 expression under iTreg condition ([4]; in the absence of AOA, analyzed on day 5): inhibited FOXP3 expression; direct effect on TH17 cell differentiation (IL-17/IL-17F and FOXP3 expression) ([5]; in the absence of AOA, exogenously added dimethyl metabolite): directly promoted TH17 cell differentiation by up-regulating IL-17/IL-17F expression and down-regulating FOXP3 expression in a dose-dependent manner; methylation level of FOXP3 promoter and its intronic CpG island [6]: dramatically increase methylation level
COC(=O)CCC(=O)C(=O)OC [dimethyl-α-KG]	reversed its enhancing effect on iTreg differentiation	rescued the inhibitory effect of AOA on TH17 differentiation	–	–	–	–	–
GOT1-1: shRNA targeting GOT1 (SEQ ID NO: 47) in PMKO.1-GFP retrovirus vector (CCGGCCACATGAGAAGACGTTTCTTCTCGAGAAGAAACGTCTTCTCATGTGGTTTTTG)	–	–	reduced	reciprocally increased	–	–	–
GOT1-2: shRNA targeting GOT1 (SEQ ID NO: 48) in PMKO.1-GFP retrovirus vector (CCGGGTCGAACAGAAGATTGCTAATCTCGAGATTAGCAATCTTCTGTTCGACTTTTTG)	–	–	reduced	reciprocally increased	–	–	–
shRNA against IDH1: shRNA targeting IDH1 (SEQ ID NO: 49) in PMKO.1-GFP retrovirus vector (CCGGCCTGGGCTTAGAATGAGTCTTCTCGAGAAGACTCATTCTAAGCCCAGGTTTTTG)	–	–	–	–	approximately 30%	efficiently suppressed the mRNA expression	–
shRNA against IDH2: shRNA targeting IDH2 (SEQ ID NO: 50) in PMKO.1-GFP retrovirus vector (CCGGGAAGAGTTCAAGCTGAAGAAACTCGAGTTTCTTCAGCTTGAACTCTTCTTTTTG)	–	–	–	–	approximately 30%	efficiently suppressed the mRNA expression	–

From patent US11241455B2, “Methods of treating disease by metabolic control of T-cell differentiation” (The J. David Gladstone Institutes, a testamentary trust …, priority 2016, dated 2022)
